Source: ChEMBL document CHEMBL5325478, “The unique activity of saponin: Induction of cytotoxicity in HTLV-1 infected cells” (Bioorg Med Chem, 2023)
Activity calls are given as the source filed them. The calls are words filed in the database; no cut-off is given here.

Columns and labels:
Jurkat [1] = assay: Cytotoxicity against human Jurkat cells assessed as reduction in cell viability at 100 uM incubated for 3 days by MTT assay; type: functional, cell-based; settings: time 3.0 day
MT2 [2] = assay: Cytotoxicity against human MT2 cells infected with HTLV-1 assessed as reduction in cell viability at 100 uM incubated for 3 days by MTT assay; type: functional, cell-based; settings: time 3.0 day
Jurkat [3] = assay: Cytotoxicity against human Jurkat cells assessed as reduction in cell viability at 50 uM incubated for 3 days by MTT assay; type: functional, cell-based; settings: time 3.0 day
MT2 [4] = assay: Preferential cytotoxicity against human MT2 cells infected with HTLV-1 assessed as reduction in cell viability at 10 to 25 uM incubated for 3 days by MTT assay; type: functional, cell-based; settings: dose 10-25 µM, time 3.0 day
MT2 [5] = assay: Cytotoxicity against human MT2 cells infected with HTLV-1 assessed as reduction in cell viability at 50 uM incubated for 3 days by MTT assay; type: functional, cell-based; settings: time 3.0 day
MT2 [6] = assay: Suppression of GAG protein cleavage in human MT-2 cells infected with HTLV-1 assessed as reduction in p19 protein expression in supernatant at 50 uM incubated for 3 days by immunoblot analysis; type: cell-based; settings: time 3.0 day
HeLa [7] = assay: Induction of GAG aggregation in human HeLa cells transfected with Gag-Venus expression vector assessed as increase in number of bright GAG dots at 50 uM incubated for 2 hrs by immunostaining based confocal microscopic analysis; type: cell-based
MT2 [8] = assay: Suppression of GAG protein cleavage in human MT-2 cells infected with HTLV-1 assessed as reduction in intracellular p28 protein expression at 50 uM incubated for 3 days by immunoblot analysis; type: cell-based; settings: time 3.0 day
MT2 [9] = assay: Induction of GAG aggregation in top cross section of human MT-2 cells infected with HTLV-1 assessed as ratio of cells with aggregated GAG at 50 uM incubated for 2 hrs by immunostaining based confocal microscopic analysis (reference value: 4.3%); type: cell-based
HeLa [10] = assay: Induction of GAG aggregation in human HeLa cells transfected with Gag-FLAG expression vector assessed as increase in number of bright GAG dots at 50 uM incubated for 2 hrs by immunostaining based confocal microscopic analysis; type: cell-based
MT2 [11] = assay: Induction of GAG aggregation in middle cross section of human MT-2 cells infected with HTLV-1 assessed as ratio of cells with aggregated GAG at 50 uM incubated for 2 hrs by immunostaining based confocal microscopic analysis (reference value: 44.1%); type: cell-based
HeLa [12] = assay: Upregulation of membrane localized GAG protein expression in human HeLa cells transfected with GAG-FLAG expression vector assessed as effect on E-cadherin protein expression at 50 uM by chemiluminescence based immunoblotting analysis; type: functional, cell-based
MT2 [13] = assay: Suppression of GAG protein cleavage in human MT-2 cells infected with HTLV-1 assessed as increase in intracellular Pr53 protein expression at 50 uM incubated for 3 days by immunoblot analysis; type: cell-based; settings: time 3.0 day

SMILES	Activity (Jurkat [1])	Activity (MT2 [2])	Activity (Jurkat [3])	Activity (MT2 [5])	other results
C[C@@H]1O[C@@H](O[C@H]2[C@H](O[C@H]3CC[C@@]4(C)[C@@H](CC[C@]5(C)[C@@H]4CC=C4[C@@H]6CC(C)(C)CC[C@]6(C(=O)O[C@@H]6O[C@H](CO[C@@H]7O[C@H](CO)[C@@H](O[C@@H]8O[C@@H](C)[C@H](O)[C@@H](O)[C@H]8O)[C@H](O)[C@H]7O)[C@@H](O)[C@H](O)[C@H]6O)CC[C@]45C)[C@]3(C)CO)OC[C@H](O)[C@@H]2O)[C@H](O)[C@H](O)[C@H]1O	inactive	inactive			
CC1(C)CC[C@]2(C(=O)O)CC[C@]3(C)C(=CC[C@@H]4[C@@]5(C)CC[C@H](O[C@@H]6OC[C@H](O)[C@H](O)[C@H]6O)[C@@](C)(CO)[C@@H]5CC[C@]43C)[C@@H]2C1	Active	Active	Active	Active	Activity (MT2 [4]): inactive
CC1(C)CC[C@]2(C(=O)O[C@@H]3O[C@H](CO[C@@H]4O[C@H](CO)[C@@H](O)[C@H](O)[C@H]4O)[C@@H](O)[C@H](O)[C@H]3O)CC[C@]3(C)C(=CC[C@@H]4[C@@]5(C)CC[C@H](O[C@@H]6OC[C@H](O)[C@H](O)[C@H]6O[C@@H]6OC[C@@H](O)[C@H](O)[C@H]6O)[C@@](C)(CO)[C@@H]5CC[C@]43C)[C@@H]2C1	inactive	inactive			
CC1(C)CC[C@]2(C(=O)O)CC[C@]3(C)C(=CC[C@@H]4[C@@]5(C)CC[C@H](O[C@@H]6OC[C@H](O)[C@H](O)[C@H]6O[C@@H]6O[C@H](CO)[C@@H](O)[C@H](O)[C@H]6O)[C@@](C)(CO)[C@@H]5CC[C@]43C)[C@@H]2C1	Active	Active	inactive	Active	Activity (MT2 [6]): Active; Activity (HeLa [7]): Active; Activity (MT2 [8]): Active; Ratio (MT2 [9]): 7.3%; Activity (HeLa [10]): Active; Ratio (MT2 [11]): 41.3%; Activity (HeLa [12]): inactive; Activity (MT2 [13]): inactive
C[C@@H]1O[C@@H](O[C@H]2[C@H](O)[C@@H](O)[C@H](OC[C@H]3O[C@@H](OC(=O)[C@]45CCC(C)(C)C[C@H]4C4=CC[C@@H]6[C@@]7(C)CC[C@H](O[C@@H]8OC[C@H](O[C@@H]9O[C@@H](C)[C@H](O)[C@@H](O)[C@H]9O)[C@H](O)[C@H]8O[C@@H]8O[C@H](CO)[C@@H](O)[C@H](O)[C@H]8O)[C@@](C)(CO)[C@@H]7CC[C@@]6(C)[C@]4(C)CC5)[C@H](O)[C@@H](O)[C@@H]3O)O[C@@H]2CO)[C@H](O)[C@H](O)[C@H]1O	inactive	inactive			
CC1(C)CC[C@]2(C(=O)O)CC[C@]3(C)C(=CC[C@@H]4[C@@]5(C)CC[C@H](O[C@@H]6OC[C@H](O)[C@H](O)[C@H]6O[C@@H]6OC[C@@H](O)[C@H](O)[C@H]6O)[C@@](C)(CO)[C@@H]5CC[C@]43C)[C@@H]2C1	Active	Active	Active	Active	Activity (MT2 [4]): inactive
CC1(C)CC[C@]2(C(=O)O[C@@H]3O[C@H](CO[C@@H]4O[C@H](CO)[C@@H](O)[C@H](O)[C@H]4O)[C@@H](O)[C@H](O)[C@H]3O)CC[C@]3(C)C(=CC[C@@H]4[C@@]5(C)CC[C@H](O[C@@H]6OC[C@H](O)[C@H](O)[C@H]6O)[C@@](C)(CO)[C@@H]5CC[C@]43C)[C@@H]2C1	inactive	inactive			
CC1(C)CC[C@]2(C(=O)O)CC[C@]3(C)C(=CC[C@@H]4[C@@]5(C)CC[C@H](O)[C@@](C)(CO)[C@@H]5CC[C@]43C)[C@@H]2C1			Active	Active	Activity (MT2 [6]): inactive; Activity (MT2 [8]): inactive; Activity (MT2 [13]): inactive
